These results are taken from patent publication US9511120B2, “Use of the angiotensin-(1-9) peptide or derivatives thereof, use of vectors overexpressing the ACE2 enzyme that produces angiotensin-(1-9) for preparing medicaments useful for preventing, reverting, inhibiting and/or reducing hypertension and/or inducing vasodilation” (PONTIFICA UNIVERSIDAD CATÓLICA DE CHILE, priority 2012, dated 2016).

Common to all, as to assay type: in vivo, rat
The subject of assay [1] is hypertensive rats by clamping the renal artery (Goldblatt model). Put plainly: Goldblatt model (GB, 2 kidneys, 1 clip): body weight, cardiac mass, systolic blood pressure. An excerpt:
(§1) Lewis normotensive rats (weight 150±10 g), which were separated randomly into the experimental hypertension model group or GB (Ocaranza et al. J. Hypertens. 20:413-20, 2002) or control group (S) were used. The latter corresponded to pseudo-operated animals. All animals were maintained under controlled conditions of light and darkness and had free access to food and water. Four weeks after surgery and at a blood pressure above 140 mmHg, GB rats were randomized for the chronic administration of angiotensin-(1-9) through an osmotic pump (602 ng kg^−1min^−1) via the jugular vein during two weeks. The animals were euthanized after 6 weeks post-surgery.
(§2) Systolic blood pressure (SBP) was measured by the tail plethysmographic method in the animals. To such end, rats were lightly anesthetized with ethyl ether. The measurement was performed once a week by researchers blind to the treatment (Ocaranza et al. J. Hypertens. 20:413-20, 2002).
(§3) The degree of cardiac hypertrophy (CH) was measured by the ratio of the cardiac mass (CM), the body mass (BM) and relative cardiac mass (RCM; [CM/BM]*100) (Ocaranza et al., J. Hypertens. 28:1054-1064, 2010).

The subject of assay [2] is thoracic aortas of hypertensive rats by pressure overload. Put plainly: Goldblatt model: aortic hypertrophy by morphometry. As to conditions: GB rats, thoracic aorta.
Description: as §1
Aortic hypertrophy was determined by morphometry. Sections of the descending aorta of 5 μm thick, which were previously fixed in Bouin (1.3% picric acid, 9.5% formaldehyde and 4.8% acetic acid) for 24 hours, embedded in paraffin and stained with hematoxylin-eosin, were used, to be examined later in a light microscope as described by Igase et al. (Am. J. Physiol. 289:H1013-9, 2005). Briefly, images of the aortas were captured by a video camera (Nikon) fixed to a microscope (Nikon), and projected on a monitor; using the software Nis-Element. Lumen areas (LA) and total areas (TA) were calculated and recorded. The tunica media area (TMA) was obtained from the difference between the TA and LA of the aorta. The tunica media thickness (TMT) was defined as the region delimited by the external elastic lamina (EEL) and internal elastic lamina (IEL).

For assay [3], the system named is hypertensive rats by administration of angiotensin II. Nature of the assay: Hypertension induced by angiotensin II infusion: body mass, cardiac mass, systolic blood pressure. On the procedure: (§4) Rats were subjected to the model of angiotensin II infusion (Grobe et al.: Am. J. Physiol. 292: H736-42, 2007). The animals were separated randomly into the following experimental groups: controls (Sham or pseudo-operated), infused with angiotensin II (300 ng/kg min), infused with angiotensin II and angiotensin-(1-9) (300 ng/kg min and 602 ng/kg min, respectively), and then infused with angiotensin II, angiotensin-(1-9) and the angiotensin-(1-7) receptor antagonist, A779 (300 ng/kg min, 602 ng/kg min, and 100 ng/kg min, respectively). In all cases the pumps operated at a flow of 0.5 μL/h and were implanted in the right jugular vein through a catheter fitted in an intrascapular subcutaneous pocket under anesthesia with ketamine HCl/xylazine (35 and 7 mg/kg i.p., respectively), for a period of 14 days.
as §2, §3
Four experimental groups of rats were established as described in Example 1. Group 1 corresponds to rats which were infused with saline (Sham). Group 2 corresponds to rats which were infused with only angiotensin II. Group 3 correspond to rats which were co-infused with angiotensin II and angiotensin-(1-9). And Group 4 corresponds to rats which were co-infused with angiotensin II, angiotensin-(1-9) and A779.

The test system of a further assay is ED-1. Nature of the assay: Goldblatt model: ventricular content of ED-1. As to conditions: GB rats, ventricle.
Description: as §1
Immunostaining was performed using the streptavidin-biotin-peroxidase method with the inflammation marker ED-1. This is a glycoprotein expressed primarily in the lysosomal membrane of active macrophages (Leskovar et al. J. Exp. Biol. 203:1783-1795, 2000).
In order to block endogenous peroxidase, the samples were deparaffinized, rehydrated and treated with 10% H2O2 in methanol for 1 h. Then, the tissues were incubated with monoclonal antibody anti ED-1 (clone MCA341R, Serotec) diluted 1/1000 in 1% BSA prepared in PBS-0.05% Tween 20 overnight at 4° C. in a humid chamber. The sections were washed three times with 1×PBS-0.05% Tween 20, pH 7.4 for 5 min and incubated with the biotinylated secondary antibody for 30 min at room temperature. […]

A further assay has as its system TGF-β mRNA. Put plainly: Angiotensin II infusion model: TGF-β mRNA levels in the aortic wall. As to conditions: angiotensin II-infused rats. On the procedure: as §4
(§5) The procedure described by Ocaranza et al. (Hypertension 48:572-8, 2006) was followed. Briefly, total RNA was isolated from the aorta using the trizol method and quantified by spectroscopy at 260 nm/280 nm. The cDNA was obtained by reverse transcription from 1.5 μg of total RNA treated with DNAse. […] The band intensity was quantified by densitometry and normalized to the 18S ribosomal RNA band.

For the next assay, the system named is MCP-1 mRNA. Nature of the assay: Angiotensin II infusion model: MCP-1 mRNA levels in the aortic wall. On the procedure: as §4, §5

Marks after values point to notes of the source that are not given here. Where no end group is shown, it is not given here.

As to DRVYIHPFH, the “decrease of systolic blood pressure” value in assay [1] (GB rats, from week 1 after the administration, maintained 2 weeks) is listed as 15%. Moreover, in assay [1] (GB rats, two weeks treatment), the CM was 0.37 ± 0.02 ^ g and the RCM was 0.84 ± 0.04 mg/g. Besides, in assay [1] (hypertensive rats vs. 400±1 in GB, not statistically significant), the “RCM” value was determined as 380±2. In assay [1] (rats with HTN vs. untreated GB animals 0.93±0.04), the “BW (as printed in text)” value turned out to be 0.84 ± 0.03 g. In assay [2], the “increase in TMA” value was “reduced significantly”, the “increase in TMA/AL” value is listed as “reduced significantly” and the “increase in TMT” value is listed as “reduced significantly”. For the same sequence, in assay [3] (1st week of infusion), the “SBP 1st week” value was determined as 141 ± 9 mmHg. Moreover, in assay [3] (2nd week of infusion), the “SBP 2nd week” value stood at 139 ± 11 mmHg. For the same sequence, the “Initial SBP” value in assay [3] (baseline, tail plethysmography) is given as 123 ± 11 mmHg. In addition, in assay [3] (co-administration with angiotensin II), the “decrease of SBP as compared to angiotensin II” value worked out at 10%. Moreover, in assay [3] (rats, infusion for 14 days), the CM is listed as 984 ± 26 mg and the “RCM (MV/MC)” value is 386 ± 36. Besides, in the assay on ED-1, the “# Positive cells (ED-1)” value is reported as 0-20; the “Assigned value (ventricular content of ED-1)” value was 1^# (Low number of ED1 and isolated). In addition, the “reduction of TGF-β mRNA levels” value in the assay with TGF-β mRNA stood at 62.5%. Further, the “MCP-1 mRNA levels” value with MCP-1 mRNA was “no differences”.
